Activity calls are given as the source filed them. The calls are words filed in the database; no cut-off is given here.
Key:
[1] = Cytotoxicity against Wistar rat splenocytes assessed as reduction in cell viability at 100 to 500 uM after 24 hrs by MTT assay; type: tissue-based; conditions: splenocyte, dose 100-500 µM
[2] = Cytotoxicity against Wistar rat splenocytes assessed as cell viability at >10 uM after 24 to 48 hrs by MTT assay; type: tissue-based; conditions: splenocyte, time 24-48 hrs
Splenocyte [3] = assay: Immunomodulatory activity in Wistar rat splenocytes assessed as decrease in LPS-induced cell proliferation at 0.1 to 100 uM after 48 hrs by MTT assay; type: functional, cell-based; conditions: dose 0.1-100 µM
Splenocyte [4] = assay: Immunomodulatory activity in Wistar rat splenocytes assessed as decrease in ConA-induced cell proliferation at 0.1 to 500 uM after 48 hrs by MTT assay; type: functional, cell-based; conditions: dose 0.1-500 µM
Splenocyte [5] = assay: Immunomodulatory activity in Wistar rat splenocytes assessed as decrease in LPS-induced cell proliferation at 0.1 to 10 uM after 48 hrs by MTT assay; type: functional, cell-based; conditions: dose 0.1-10 µM
Splenocyte [6] = assay: Immunomodulatory activity in Wistar rat splenocytes assessed as decrease in LPS-induced cell proliferation at 500 uM after 48 hrs by MTT assay; type: functional, cell-based
[7] = Cytotoxicity against Wistar rat splenocytes assessed as cell viability at 0.1 uM after 48 hrs by MTT assay; type: tissue-based; conditions: splenocyte
[8] = Cytotoxicity against Wistar rat splenocytes assessed as cell viability at 100 uM after 48 hrs by MTT assay relative to control; type: tissue-based, Splenocyte; conditions: read-out: Activity
[9] = Cytotoxicity against Wistar rat splenocytes assessed as reduction in cell viability at 0.1 to 500 uM after 48 hrs by MTT assay; type: tissue-based; conditions: splenocyte, dose 0.1-500 µM
[10] = Cytotoxicity against Wistar rat splenocytes assessed as reduction in cell viability at 100 uM after 48 hrs by MTT assay relative to control; type: tissue-based; conditions: splenocyte

SMILES	Activity [1]	Activity [2]	Activity (Splenocyte [3])	Activity (Splenocyte [4])	Activity (Splenocyte [5])	Activity (Splenocyte [6])	Activity [7]	viability at 48 h, 100 µM [8] [%]	Activity [9]	Activity [10] [%]
C/C1=C\[C@@H]2[C@@H](CC/C(CO)=C/CC1)C2(C)C (relative stereo)	Toxic	Toxic	inactive	Active						
C[C@H]1CCC2=C(C(C)(C)O)CC(C)(C)C[C@@H]21 (relative stereo)	Toxic			Active	Active	inactive	Non-Toxic			
C[C@@H]1/C=C/C(C)(C)[C@H](O)CC/C(CO)=C/CC1 (relative stereo)	Toxic			Active	Active	inactive		60	Toxic	
C[C@@H]1/C=C/[C@H](C(C)(C)O)CC/C(CO)=C/CC1 (relative stereo)	Toxic	Toxic		Active	Active	inactive				
C[C@@H]1C[C@H]2[C@@H]3CCC4=CC(=O)C=C[C@]4(C)[C@@]3(F)[C@@H](O)C[C@]2(C)[C@@]1(O)C(=O)CO [DEXAMETHASONE]										65

Reference: ChEMBL document CHEMBL4673339, “Immunomodulatory Constituents of Conocephalum conicum (Snake Liverwort) and the Relationship of Isolepidozenes to Germacranes and Humulanes” (J Nat Prod, 2020)
